# Source: patent publication US8735611B2, “Crystalline forms of cabazitaxel” (ScinoPharm Taiwan, Ltd., priority 2011, dated 2014)
# Experiment: Dynamic vapor sorption (DVS) analysis
# Format: physicochemical
# Conditions: over 2 cycles tested; consistent with loss of AcOH upon dehumidification, confirmed by 1H NMR after DVS
# Experimental: XRPD analysis confirmed that Form C9 is crystalline. […] (FIG. 10c). Decomposition occurs at about 220° C., as indicated by the large weight loss observed by TGA around this temperature. […] This was confirmed by ^1H NMR spectroscopy after DVS analysis. KF titration of Form C9 indicated the presence of about 2.3% water.
# A hot solution of cabazitaxel (0.1 g) in 1 mL of AcOH and 0.5 mL of H2O was slowly cooled to room temperature. The mixture was filtered and the resulting solids were dried in a vacuum oven to give cabazitaxel Form C9 as a white solid (melting point: 152.5-159.3° C.). […] This was consistent with a loss of AcOH upon dehumification, which was confirmed by ^1H NMR spectroscopic analysis after the DVS test.
smiles,measurement,value
"CO[C@H]1C(=O)[C@]2(C)[C@@H](OC)C[C@H]3OC[C@@]3(OC(C)=O)[C@H]2[C@H](OC(=O)c2ccccc2)[C@]2(O)C[C@H](OC(=O)[C@H](O)[C@@H](NC(=O)OC(C)(C)C)c3ccccc3)C(C)=C1C2(C)C [Form C9, cabazitaxel]",weight loss and gain upon changing humidity (DVS),non-perfectly reversible weight loss and gain upon changing humidity
